# In patent publication US20250084416A1, “TARGETING OF XKR8 IN THERAPIES” (University of Pittsburgh - Of the Commonwealth System of …, priority 2022, published 2025):
# Assays:
# [1] = test system: luciferase in MC38-Luc cells; experiment: In vitro luciferase gene knockdown; format: cell-based, murine; conditions: 1 h pretreatment prior to siLUC NP transfection
# mXkr8 mRNA = experiment: qRT-PCR of Xkr8 mRNA in cultured murine tumor cells (CT26, Panc02); format: cell-based; conditions: for Xkr8 mRNA expression: 24 h treatment
# Method: (§1) To examine the effect of different chemotherapeutic agents on the expression level of Xkr8 mRNA, CT26, Panc02, PANC-1 or HT29 cells were treated with various concentrations of FuOXP, DOX or PTX. Twenty-four h later, cells were collected and subjected to qRT-PCR of mXkr8 or hXkr8 as detailed below.
# (§2) To examine the impact of ActD treatment on the expression level of Xkr8 mRNA, CT26 or PANC-1 tumor cells were treated with FuOXP (10 μM) for 12 h followed by addition of ActD (2 μM). At 2 or 4 h following ActD treatment, cells were collected and subjected to qRT-PCR of Xkr8 mRNA as described below. In another study, cells were treated with NAC (2.5 mM) for 12 h followed by treatment with FuOXP, DOX or PTX for another 12 h. qRT-PCR of Xkr8 mRNA was then similarly performed.
# (§3) Tumor tissues or cells collected from the above experiments were subjected to RNA extraction by TRIzol™. cDNA was generated from the purified RNA using QuantiTect Reverse Transcription Kit (Qiagen, MD, USA) according to the manufacturer's instructions. Quantitative real-time PCR was performed using SYBR Green Mix on a 7900 HT PCR instrument (Applied Biosystems, MA, USA). Relative target mRNA levels were analyzed using delta-delta-Ct calculations and normalized to GAPDH.
# hXkr8 mRNA = experiment: qRT-PCR of Xkr8 mRNA in cultured human tumor cells (HT-29, PANC-1); format: cell-based; conditions: for Xkr8 mRNA expression: 24 h treatment
# Method: as §1, §2, §3
# CT26 tumor cells = experiment: Surface PS on CT26 tumor cells and EVs (Annexin V flow); format: cell-based, murine; conditions: CT26 tumor cells in vitro
# Method: Effect of Xkr8 knockdown on the PS expression levels of tumor cells and EVs following FuOXP treatment: CT26 cancer cells were first treated with siXkr8 NPs for 72 h and then treated with FuOXP/siXkr8-coloaded NPs for another 24 h. EVs were isolated from culture medium using gradient ultra-centrifugation according to a previously established protocol^48. Briefly, culture medium was collected and centrifuged for 20 min at 1,800 RPM at 4° C. to clear dead cells and cell debris. The supernatant was then transferred to a polycarbonate ultracentrifuge tube and centrifuged at 9,000 RPM for 35 min at 4° C. to collect larger EVs. The supernatant was centrifuged again at 30,000 RPM for 80 min at 4° C. and the pellet was resuspended in 100 μL of PBS for smaller EVs collection. The levels of surface PS on tumor cells and EVs were analyzed by flow using BV421-labeled Annexin V. For detection of EVs by flow cytometry, electronic “Height” (-H) parameter rather than the “Area” (-A) parameter was used to allow optimal signal detection.
# HUVECa and CT26 cells = experiment: Transwell co-culture transcytosis (HUVECa upper, CT26 lower chamber); format: cell-based; conditions: endocytosis inhibitor
# Method: To explore a potential role of transcytosis in tumor targeting, a co-culture experiment with HUVECa and CT26 cells using a Transwell plate was conducted.
# hXkr8 protein = experiment: Western blot of hXkr8 protein in HT29 and PANC-1 cells; format: cell-based, human; conditions: PANC-1 cells; NAC 12 h then drug 12 h
# Method: Analysis of hXkr8 protein level by Western blot: Cultured HT29 or PANC-1 cells received similar treatments as described above. Cells were then lysed with RIPA lysis buffer (Thermo Fisher Scientific, MA, USA) by gently shaking on ice for 30 min. After centrifugation at 12,300 RPM for 10 min, the supernatants were collected, and the concentrations of proteins were measured using Pierce BCA Protein Assay Kit (ThermoFisher Scientific, MA, USA). The protein samples were denatured by boiling for 5 min and loaded onto 10% SDS-PAGE gel for electrophoresis. The proteins in the gels were subsequently transferred onto PVDF membranes (Bio-Rad, CA, USA). The membranes were then incubated in blocking buffer (5% non-fat dry milk in TBST) for 1 h at RT, followed by incubation with anti-hXkr8 polyclonal antibody (ThermoFisher Scientific, MA, USA) in antibody dilution buffer (5% BSA in TBST, 1/2000 dilution) with gentle agitation overnight at 4° C. After washing with TBST for three times, the membranes were subsequently incubated with the secondary HRP-linked goat anti-rabbit IgG antibody (Cell Signaling Technology, MA, USA) for 1 h at RT. After another three washes with TBST, the membranes were incubated with Pierce™ ECL Western Blotting Substrate (ThermoFisher Scientific, MA, USA) for 1 min. Protein expression was normalized against β-Tubulin expression.
compound,measurement,setting,value
CCCCC[C@@H](O)[C@H]1C(=O)O[C@H](C)[C@@H](O)/C=C/C=C/C=C/C=C/C=C(\C)[C@@H](O)C[C@H](O)C[C@H](O)C[C@H](O)C[C@H](O)C[C@H](O)C[C@@H]1O [filipin],efficiency of silence after inhibitor pretreatment,[1],drastically attenuated
C=C1[C@@H](C)[C@H]2[C@H](Cc3ccccc3)NC(=O)[C@]23[C@H](OC(C)=O)/C=C/[C@@](C)(O)C(=O)[C@@H](C)C/C=C/[C@H]3[C@@H]1O [cytochalasin D],efficiency of silence after inhibitor pretreatment,[1],drastically attenuated
N=C(N)NC(=O)c1nc(Cl)c(N)nc1N [amiloride],efficiency of silence after inhibitor pretreatment,[1],drastically attenuated
CN(C)CCCN1c2ccccc2Sc2ccc(Cl)cc21 [chlorpromazine],efficiency of silence after inhibitor pretreatment,[1],drastically attenuated
"CC(=O)O[C@H]1C(=O)[C@@]2(C)[C@H]([C@H](OC(=O)c3ccccc3)[C@]3(O)C[C@H](OC(=O)[C@H](O)[C@@H](NC(=O)c4ccccc4)c4ccccc4)C(C)=C1C3(C)C)[C@]1(OC(C)=O)CO[C@@H]1C[C@@H]2O [PTX, paclitaxel]",Xkr8 mRNA expression,mXkr8 mRNA; CT26 cells,Induction
same,Xkr8 mRNA expression,mXkr8 mRNA; Panc02 cells,Induction
same,Xkr8 mRNA expression,hXkr8 mRNA; HT-29 cells,Induction
same,Xkr8 mRNA expression,hXkr8 mRNA; PANC-1 cells,Induction
"siXkr8: Murine Xkr8 siRNA, Seq ID No 1 and 2, siRNA ID 164623 (chain 1 GGCACAAAUUUUAUGCCUG; chain 2 CAGGCAUAAAAUUUGUGCC; RNA, backbone not given here; further chemistry not fully specified; listed as Mus musculus)",level of surface PS (Annexin V+ cells),CT26 tumor cells,almost abolished
O=C(N/N=C/c1ccc(O)c(O)c1)c1cc2ccccc2cc1O [dynasore],efficiency of silence after inhibitor pretreatment,[1],drastically attenuated
same,effect on transcytosis-mediated transfection of CT26 cells,HUVECa and CT26 cells,significantly inhibited
"COc1cccc2c1C(=O)c1c(O)c3c(c(O)c1C2=O)C[C@@](O)(C(=O)CO)C[C@@H]3O[C@H]1C[C@H](N)[C@H](O)[C@H](C)O1 [DOX, doxorubicin]",Xkr8 mRNA expression,mXkr8 mRNA; CT26 cells,Induction
same,Xkr8 mRNA expression,mXkr8 mRNA; Panc02 cells,Induction
same,Xkr8 mRNA expression,hXkr8 mRNA; HT-29 cells,Induction
same,Xkr8 mRNA expression,hXkr8 mRNA; PANC-1 cells,Induction
"CC(=O)N[C@@H](CS)C(=O)O [NAC, N-acetylcysteine]",effect of pretreatment on Xkr8 mRNA induction by the 3 drugs,"mXkr8 mRNA; CT26 cells, NAC 12 h then drug 12 h",partially attenuated
same,effect of pretreatment on Xkr8 mRNA induction by the 3 drugs,"hXkr8 mRNA; PANC-1 cells, NAC 12 h then drug 12 h",partially attenuated
same,effect of pretreatment on Xkr8 protein induction by the 3 drugs,hXkr8 protein,partially attenuated
